Laboratory results taken from EP0565593B1, “REDUCING PESTICIDAL INTERACTIONS IN CROPS” (priority 1990, dated 1992).

Test system: Giant foxtail (GIFT)
Assay: Greenhouse test Procedure VI (Examples 59-61; Tables 58-60)
Assay type: in vivo
Conditions: Antidote + Biocide No. 1 in furrow
Excerpt: This procedure describes interaction among herbicide, biocide and antidote when the herbicide is incorporated in a soil cover layer and the biocide and the antidote are applied in a soil furrow containing crop seed before emergence of the crop. The soil and seeding depth were described in Procedure IV. A first container was designated as an untreated control, a second container was designated as a herbicide control, a third container was designated as a herbicide + biocide control and a fourth container as a herbicide + biocide + antidote test container. The biocide and antidote were formulated as granules. The biocide was applied to the soil furrows of the third and fourth containers at an application rate of 1.1 mg of active compound per cm of row. The antidote was applied to the soil furrow of the fourth container at an application rate of 0.37 mg of active compound per cm of row. A measured amount of the herbicide dispersed or dissolved in acetone was applied to a measured quantity of soil. The quantity of soil treated with the herbicide was thoroughly mixed to incorporate the herbicide. Samples of this soil were used to cover the seed beds of the second, third and fourth containers. For each test series, the seed bed of the first container was likewise covered by a soil layer not treated with herbicide and without biocide or antidote in the soil furrow.
The containers were then placed on a bench in a greenhouse. Watering was by subirrigation plus overhead irrigation after the plants emerged. All treatments were run in duplicate. Plant response was observed according to Procedure IV. Variations in this procedure will be noted in the examples.
The procedure used in this example involved the PPI application of biocide and safener as described in general Procedure VI above. The "primary" herbicide in this test was MON-12000 (Herbi-cide No. 1) in admixture with other herbicides designated as "co-herbicides", which included LASSO® (co-herbicide B); DUAL® (C); acetochlor (A); EPTAM® (D); butylate (E) and PURSUIT® (K).
The in-furrow treatments with blended COUNTER 15G and antidote mixtures was as described in above examples. MON-12000 and the co-herbicides were formulated in acetone and applied as tank mixtures, incorporated into Dupo silt loam soil with a rotary drum mixer. Subsamples were used to cover seeded and in-furrow treated 10.2 cm pots. Pots were placed on greenhouse benches and subirrigated. Plant responses were observed thirteen days after PPI initiation. Test results (average of two replications) are shown in Table 58, wherein giant foxtail (GIFT) was used in place of shattercane.
This test was conducted in the same manner used in Example 59. All biocide and antidote components were the same and in these tests XRD-498 (Herbicide No. 21) was the prime herbicide. Co-herbicides are shown in Table 59 together with test data.
In one other test conducted as described in the preceding examples in this series of tests, the herbicide PURSUIT® was used as the primary herbicide (in the context of this invention) together with the same insecticide and safeners as above and the co-herbicides shown in Table 60, together with test results.

## N#CCOc1ccc(Cl)c2cccnc12 [compound 33]
Herbicide No. 6 0.14 Kg/Ha PPI
  % Inhibition GIFT: 70%
Herbicide No. 11 0.0044 Kg/Ha PPI
  % Inhibition GIFT: 0%
Herbicide No. 12 0.0044 Kg/Ha PPI
  % Inhibition GIFT: 0%
Herbicide No. 13 0.0011 Kg/Ha PPI
  % Inhibition GIFT: 10%
Herbicide No. 13 0.0022 Kg/Ha PPI
  % Inhibition GIFT: 35%
Herbicide No. 14 0.07 Kg/Ha PPI
  % Inhibition GIFT: 0%
Herbicide No. 16 0.07 Kg/Ha PPI, 13 days
  % Inhibition GIFT: 45%
Herbicide No. 17 0.14 Kg/Ha PPI, 13 days
  % Inhibition GIFT: 80%
Herbicide No. 18 0.04 Kg/Ha PPI, 13 days
  % Inhibition GIFT: 45%
Herbicide No. 20 1.12 Kg/Ha PPI, 13 days
  % Inhibition GIFT: 30%
Herbicide No. 22 0.28 Kg/Ha PPI, 13 days
  % Inhibition GIFT: 15%
Herbicide No. 24 0.14 Kg/Ha PPI, 13 days
  % Inhibition GIFT: 25%
Herbicide No. 25 0.14 Kg/Ha PPI, 13 days
  % Inhibition GIFT: 25%
Herbicide No. 26 2.24 Kg/Ha PPI, 13 days
  % Inhibition GIFT: 15%
Herbicide No. 28 0.04 Kg/Ha PPI, 13 days
  % Inhibition GIFT: 40%
